Reference: paper PMC2813863, “In Vivo Evaluation of α7 Nicotinic Acetylcholine Receptor Agonists [^11C]A-582941 and [^11C]A-844606 in Mice and Conscious Monkeys” (PLoS ONE, 2010)
Values joined by “and” are separate entries in the source; they are usually repeats but may differ in a detail not shown here. Equal entries are not always repeated. Where two headings read alike, the source gives them in different places.

How the values were obtained:
α7 nAChRs [1] = target: α7 nAChRs (Mus musculus, UniProt P49582); details: in vivo
Protocol: In the other group of mice, a blocking experiment to determine the α7 nAChRs-specific regional brain uptake of the tracers was carried out. Each tracer (2 MBq/0.055–0.096 nmol) was co-injected with each of the following blockers into mice, and 15 ([^11C]A-582941) or 30 ([^11C]A-844606) min later the mice were killed (n = 5) and the tissue uptake of ^11C was expressed as the %ID/g. […] Each blocker was dissolved in 1N HCl to 40 mg/ml and diluted up to 0.4 mg/ml with saline. The co-injected dose was 1 mg/kg. In the control mice the same amount of 0.01 N HCl in saline was co-injected.

α7 nAChRs [2] = target: α7 nAChRs (Macaca mulatta, UniProt Q866A2); details: rhesus monkey, in vivo
From the text: Four young-adult male rhesus monkeys (Macaca mulatta) weighing from 4 to 6 kg were used for PET measurements. The monkeys were trained for the protocol as described previously. The magnetic resonance images (MRI) of all monkeys were obtained with a Toshiba MRT-50A/II (0.5T) under anesthesia with pentobarbital. The stereotactic coordinates of PET and MRI were adjusted based on the orbitomeatal (OM) line with monkeys secured in a specially designed head holder. At least 1 month before the PET study, an acrylic plate, with which the monkey was fixed to the monkey chair, was attached to the head under pentobarbital anesthesia as described previously.
PET data were collected on a high-resolution PET scanner (SHR-7700; Hamamatsu Photonics K.K., Hamamatsu, Japan). The camera consists of 16 detector rings and acquires 20 slices at a center-to-center interval of 3.6 mm with a transaxial resolution of 2.6 mm full width at half maximum. After an overnight fast, the monkey was fixed to the monkey chair with stereotactic coordinates aligned parallel to the OM line. A cannula was implanted in the posterior tibial vein, and [^11C]A-582941 or [^11C]A-844606 (1152–1336 MBq/26.8–63.1 nmol) was injected into the monkey through the venous cannula. PET images were acquired over 91 min (10 sec ×6 frames, 30 sec ×6 frames, 1 min ×12 frames, and 3 min ×25 frames). PET scans were reconstructed using a filtered backprojection method in a 100×100 matrix, with a voxel size of 1.2 mm ×1.2 mm ×3.6 mm. Summed image of late phase (from 70 to 91 min post-injection) was calculated as a static SUV (activity/ml tissue)/(injected activity/g body weight) image. Each MRI was coregistered to an early (from 0 to 20 min) summed image using normalized mutual information, and ROIs were placed on the summed image with reference to the coregistered MRI. Three monkeys underwent [^11C]A-582941 scan morning, and then two of the three monkeys underwent [^11C]A-844606 afternoon (baseline). Within 6 months the last one of the three monkeys underwent two [^11C]A-844606 scans in the baseline (morning) and blocking (afternoon) conditions 30 min after injection of SSR180711 (5.0 mg/kg, i.v.), and the fourth monkey underwent two [^11C]A-582941 scans in the baseline and blocking conditions in the same way.
(§1) For the semi-quantitative analysis of PET data, arterial samples were obtained every 8 sec from injection to 64 sec, and then again at 1.5, 2.5, 4, 6, 10, 20, 30, 45, 60, and 90 min after each tracer injection. Blood samples were centrifuged to separate the plasma, weighed, and subjected to radioactivity measurement. For metabolite analysis, methanol was added to some plasma samples, the resulting solutions were centrifuged, and the supernatants were developed with TLC plates (AL SIL G/UV; Whatman, Kent, UK) using a mobile phase of dichloromethane/diethyl ether/ethanol/triethylamine (20/20/2/2, v/v/v/v). At each sampling time point, the ratio of radioactivity in the unmetabolized fraction to that in the total plasma (metabolite plus unmetabolite) was determined using a phosphoimaging plate (BAS-1500 MAC; Fuji Film Co., Tokyo, Japan). The pTACs corrected for metabolite were obtained. The tTACs in each region of interest (ROI) in the brain were calculated as the %ID/ml or as a standardized uptake value (SUV), (activity/ml tissue)/(injected activity/g body weight). Using the tTACs and the metabolite-corrected pTAC, the V T for each tracer was evaluated by Logan graphical analysis.

[3] = type: in vivo, rhesus monkeys (Macaca mulatta); details: monkey
Protocol: as §1, with “Blood” for “For the semi-quantitative analysis of PET data, arterial samples were obtained every 8 sec from injection to 64 sec, and then again at 1.5, 2.5, 4, 6, 10, 20, 30, 45, 60, and 90 min after each tracer injection. Blood”

Sequence of α7 nAChRs (Macaca mulatta, UniProt Q866A2) (Q866A2 23-502): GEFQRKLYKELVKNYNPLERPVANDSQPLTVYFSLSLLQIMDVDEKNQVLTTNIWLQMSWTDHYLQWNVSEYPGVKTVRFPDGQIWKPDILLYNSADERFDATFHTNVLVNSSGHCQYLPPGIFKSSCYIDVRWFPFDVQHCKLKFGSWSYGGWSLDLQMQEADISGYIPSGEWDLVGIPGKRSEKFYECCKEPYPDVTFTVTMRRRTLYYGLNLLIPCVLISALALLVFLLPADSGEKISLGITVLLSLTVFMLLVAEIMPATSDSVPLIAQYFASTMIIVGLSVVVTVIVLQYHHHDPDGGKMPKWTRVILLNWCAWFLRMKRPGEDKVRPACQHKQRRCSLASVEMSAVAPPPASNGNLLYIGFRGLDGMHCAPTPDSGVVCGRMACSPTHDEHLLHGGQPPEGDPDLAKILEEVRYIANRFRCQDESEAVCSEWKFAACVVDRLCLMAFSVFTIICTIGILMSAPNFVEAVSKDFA
Sequence of α7 nAChRs (Mus musculus, UniProt P49582) (P49582 23-502): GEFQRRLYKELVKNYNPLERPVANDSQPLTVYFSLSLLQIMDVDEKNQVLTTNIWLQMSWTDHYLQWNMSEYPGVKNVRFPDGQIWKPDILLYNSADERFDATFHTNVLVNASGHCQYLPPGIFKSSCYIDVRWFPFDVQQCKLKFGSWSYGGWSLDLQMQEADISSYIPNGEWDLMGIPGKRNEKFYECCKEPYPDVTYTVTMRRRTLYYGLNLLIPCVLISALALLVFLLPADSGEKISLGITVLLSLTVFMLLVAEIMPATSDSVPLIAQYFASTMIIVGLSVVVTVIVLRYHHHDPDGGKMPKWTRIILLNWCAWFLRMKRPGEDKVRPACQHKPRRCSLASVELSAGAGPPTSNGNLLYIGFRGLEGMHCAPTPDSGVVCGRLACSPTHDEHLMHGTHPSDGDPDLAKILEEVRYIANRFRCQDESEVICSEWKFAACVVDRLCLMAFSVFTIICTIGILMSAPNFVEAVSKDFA

[11CH3]N1CC2CN(c3ccc(-c4ccccc4)nn3)CC2C1 (centres unmarked) [[^11C]A-582941, 2-[^11C]Methyl-5-[6-phenylpyridazine-3-yl]octahydropyrrolo[3,4-c]pyrrole]
% Injected dose/g tissue, Blood (α7 nAChRs [1]): 0.88±0.10 % Injected dose/g tissue
% Injected dose/g tissue, Cerebellum (α7 nAChRs [1]): 3.71±0.19 % Injected dose/g tissue
% Injected dose/g tissue, Cerebral cortex (α7 nAChRs [1]): 4.59±0.25 % Injected dose/g tissue
% Injected dose/g tissue, Hippocampus (α7 nAChRs [1]): 4.05±0.52 % Injected dose/g tissue
% Injected dose/g tissue, Hypothalamus (α7 nAChRs [1]): 3.51±0.60 % Injected dose/g tissue
% Injected dose/g tissue, Medulla oblongata (α7 nAChRs [1]): 4.23±0.08 % Injected dose/g tissue
% Injected dose/g tissue, Midbrain (α7 nAChRs [1]): 4.09±0.52 % Injected dose/g tissue
% Injected dose/g tissue, Striatum (α7 nAChRs [1]): 4.03±0.45 % Injected dose/g tissue
% Injected dose/g tissue, Whole brain (α7 nAChRs [1]): 4.23±0.23 % Injected dose/g tissue
V T Baseline, Cerebellum (α7 nAChRs [2]; male): 25.4 mL/g
V T Baseline, Frontal cortex (α7 nAChRs [2]; male): 34.5 mL/g
V T Baseline, Hippocampus (α7 nAChRs [2]; male): 31.6 mL/g
V T Baseline, Thalamus (α7 nAChRs [2]; male): 34.0 mL/g
V T SSR180711, Cerebellum (α7 nAChRs [2]; male): 17.3 mL/g
V T SSR180711, Frontal cortex (α7 nAChRs [2]; male): 23.0 mL/g
V T SSR180711, Hippocampus (α7 nAChRs [2]; male): 20.4 mL/g
V T SSR180711, Thalamus (α7 nAChRs [2]; male): 23.6 mL/g
V T, cerebellum (mean ± SD) (α7 nAChRs [2]; male): 23.0±3.4
V T, cerebellum (range) (α7 nAChRs [2]; male): 18.0–25.4
V T, frontal cortex (mean ± SD) (α7 nAChRs [2]; male): 29.2±4.7
V T, frontal cortex (range) (α7 nAChRs [2]; male): 23.2–34.5
V T, hippocampus (mean ± SD) (α7 nAChRs [2]; male): 28.0±3.8
V T, hippocampus (range) (α7 nAChRs [2]; male): 22.8–31.6
V T, thalamus (mean ± SD) (α7 nAChRs [2]; male): 30.4±4.1
V T, thalamus (range) (α7 nAChRs [2]; male): 24.6–34.0
time of peak radioactivity in the four brain regions (thalamus, frontal cortex, hippocampus, cerebellum) (α7 nAChRs [2]; male): 10 min
% decrease of V T, Cerebellum (α7 nAChRs [2]): 32.0%
% decrease of V T, Frontal cortex (α7 nAChRs [2]): 33.4%
% decrease of V T, Hippocampus (α7 nAChRs [2]): 35.5%
% decrease of V T, Thalamus (α7 nAChRs [2]): 30.5%
decrease of V T by pretreatment with SSR180711 (α7 nAChRs [2]): ~30%
percentage of the unchanged form in plasma ([3]; SSR180711-blocking condition (n = 1), 0.3 min): 93.2%
percentage of the unchanged form in plasma ([3]; SSR180711-blocking condition (n = 1), 0.7 min): 93.9%
percentage of the unchanged form in plasma ([3]; SSR180711-blocking condition (n = 1), 1.1 min): 93.0%
percentage of the unchanged form in plasma ([3]; SSR180711-blocking condition (n = 1), 6.0 min): 74.2%
percentage of the unchanged form in plasma ([3]; SSR180711-blocking condition (n = 1), 10 min): 56.7%
percentage of the unchanged form in plasma ([3]; SSR180711-blocking condition (n = 1), 30 min): 28.3%
percentage of the unchanged form in plasma ([3]; SSR180711-blocking condition (n = 1), 45 min): 23.2%
percentage of the unchanged form in plasma ([3]; SSR180711-blocking condition (n = 1), 60 min): 20.4%
percentage of the unchanged form in plasma ([3]; SSR180711-blocking condition (n = 1), 75 min): 22.2%
percentage of the unchanged form in plasma ([3]; SSR180711-blocking condition (n = 1), 90 min): 15.9%
percentage of the unchanged form in plasma ([3]; baseline, 10 min): 71.6±4.1%
percentage of the unchanged form in plasma ([3]; baseline, 30 min): 42.8±7.8% and 42.8%
percentage of the unchanged form in plasma ([3]; baseline, 45 min): 34.0±7.4%
percentage of the unchanged form in plasma ([3]; baseline, 60 min): 26.9±5.3%
percentage of the unchanged form in plasma ([3]; baseline, 75 min): 23.0±3.4%
percentage of the unchanged form in plasma ([3]; baseline, 90 min): 19.2±2.6%
